As usually defined, the IC50 is the midpoint of a concentration-inhibition curve.

Results on 14 molecules are retold here after article PMC6264177, “Synthesis and Characterization of (Z)-5-Arylmethylidene-rhodanines with Photosynthesis-Inhibiting Properties ^†” (Molecules, 2011).

The structures appear in SMILES notation. Where “and” joins values, the source holds several entries; their conditions need not be identical. Equal entries are not always repeated. Where two headings read alike, the source gives them in different places.

One data set relates to Chlorella vulgaris. Kind of data set: Reduction of chlorophyll content in green algae Chlorella vulgaris. The class given is cell-based, Chlorella vulgaris Beij. The following applies: 168 h; for inhibition at 100 µM: 100 μmol/L of the compound, 7-day cultivation, read-out: Chlorella vulgaris reduction of Chl. cont.; for IC50: read-out: Chlorella vulgaris IC50 (50% reduction of chlorophyll content), 7-day cultivation.

Data set [1] deals with photosynthetic electron transport (PET) in spinach chloroplasts. Briefly: Inhibition of photosynthetic electron transport (PET) in spinach chloroplasts, DCPIP photoreduction. Type of data set: biochemical, Spinacia oleracea L. The following applies: DCPIP as electron acceptor, pH 7.2. How it is done:
Chloroplasts were prepared from spinach (Spinacia oleracea L.) according to ref. [54]. The inhibition of photosynthetic electron transport (PET) in spinach chloroplasts was determined spectrophotometrically (Genesys 6, Thermo Scientific, USA) using an artificial electron acceptor 2,6-dichlorophenol-indophenol (DCIPP) according to ref. [55], and the rate of photosynthetic electron transport was monitored as a photoreduction of DCPIP. The measurements were carried out in phosphate buffer (0.02 mol/L, pH 7.2) containing sucrose (0.4 mol/L), MgCl2 (0.005 mol/L) and NaCl (0.015 mol/L). The chlorophyll content was 30 mg/L in these experiments, and the samples were irradiated (~100 W/m^2) from 10 cm distance with a halogen lamp (250 W) using a 4 cm water filter to prevent warming of the samples (suspension temperature 22 °C). The studied compounds were dissolved in DMSO due to their limited water solubility.

The nature of data set [2]: Lipophilicity HPLC determination (capacity factor k / log k). Type of data set: physicochemical. The following applies: RP-HPLC, C18 column, isocratic, MeOH 70% / H2O 30%. The procedure: The procedure was performed under isocratic conditions with methanol as an organic modifier in the mobile phase using an end-capped non-polar C18 stationary RP column. […] The HPLC separation process was monitored by Empower™ 2 Chromatography Data Software, Waters 2009 (Waters Corp., Milford, MA, USA). […] The detection wavelength of 210 nm was chosen. The KI methanolic solution was used for the dead time (tD) determination. Retention times (tR) were measured in minutes. […] Log k, calculated from the capacity factor k, is used as the lipophilicity index converted to log P scale.

The test system of data set [3] is photosynthetic electron transport (PET) in spinach chloroplasts. Set-up: method as in earlier work. The following applies: standard DCMU; ref [56]; cited from earlier work.
In data set [4] the test system is seeds of Daucus carota L. var. sativa DC. Set-up: method as in doi:10.1271/bbb.60.1368. The following applies: 1 mmol/L; ref [13]; cited from earlier work.
In another data set the test system is seeds of Sesamum indicum. Set-up: method as in doi:10.1271/bbb.60.1368. The following applies: 1 mmol/L; ref [13]; cited from earlier work.
The test system of data set [5] is Daucus carota L. var. sativa DC. Set-up: method as in doi:10.1271/bbb.60.1368. As to conditions: 0.3 mmol/L; ref [13]; cited from earlier work.
Data set [6] has as its system cotyledons of Brassica rapa L. As to conditions: 0.3 mmol/L; ref [11]; cited from earlier work.
The test system of data set [7] is immature cells of Marchantia polymorpha. On the set-up: method as in doi:10.1584/jpestics.22.1. The following applies: 1 mmol/L, within 90 hours; ref [14]; cited from earlier work.
The test system of data set [8] is photosynthetic electron transport. On the set-up: method as in doi:10.1584/jpestics.22.1. The following applies: ref [14], read-out: IC50 of PET inhibition, cited from earlier work.

Protocol for Chlorella vulgaris: (photoperiod 16 h light/8 h dark; photosynthetically active radiation (PAR) 80 μmol/m^2s; pH 7.2). The effect of rhodanine compounds on algal chlorophyll (Chl) content was determined after 7-day cultivation in the presence of the compounds tested, expressing the response as percentage of the corresponding values obtained for control. The Chl content in the algal suspension was determined spectrophotometrically (Genesys 6, Thermo Scientific, USA) after extraction into methanol according to Wellburn [58].

Consider `O=C1NC(=S)S/C1=C\c1ccccc1O` [Compound 2a, (5Z)-5-(2-Hydroxybenzylidene)-2-thioxo-1,3-thiazolidin-4-one], for which, in the data set with Chlorella vulgaris, the inhibition at 100 µM was determined as 59% and the IC50 came to 59.4 µM. The IC50 in [1] was 369 µM. Further, in data set [2], the log k is given as 0.4664.
On to `O=C1NC(=S)S/C1=C\c1cccc(O)c1` [Compound 2b, (5Z)-5-(3-Hydroxybenzylidene)-2-thioxo-1,3-thiazolidin-4-one], for which the inhibition at 100 µM in the data set on Chlorella vulgaris came out at 9.6%. The molecule also returned an IC50 in [1] of 444 µM. Besides, the log k in data set [2] is reported as 0.2744.
For the molecule `O=C1NC(=S)S/C1=C\c1ccc(O)cc1` [Compound 2c, (5Z)-5-(4-Hydroxybenzylidene)-2-thioxo-1,3-thiazolidin-4-one], the inhibition at 100 µM in the data set with Chlorella vulgaris was 29.8%. Further, the log k in data set [2] is reported as 0.2641.
For `O=C1NC(=S)S/C1=C\c1ccc(O)cc1O` [Compound 3, (5Z)-5-(2,4-Hydroxybenzylidene)-2-thioxo-1,3-thiazolidin-4-one], in the data set on Chlorella vulgaris, the inhibition at 100 µM worked out at 48.5% and the IC50 was 108 µM. Further, the log k in data set [2] is on record as 0.2776.
Take `COc1cc(/C=C2\SC(=S)NC2=O)ccc1O` [Compound 5, (5Z)-5-(4-Hydroxy-3-methoxybenzylidene)-2-thioxo-1,3-thiazolidin-4-one]: in the data set with Chlorella vulgaris, the inhibition at 100 µM worked out at 19.4%. For the same molecule, the log k in data set [2] amounted to 0.3553.
For `CN(C)c1ccc(/C=C2\SC(=S)NC2=O)cc1` [Compound 6, (5Z)-5-[(4-Dimethylamino)benzylidene]-2-thioxo-1,3-thiazolidin-4-one], the inhibition at 100 µM in the data set with Chlorella vulgaris came to 12.6%. Further, the log k in [2] is listed as 0.6466.
On to `O=C1NC(=S)S/C1=C\c1cccc([N+](=O)[O-])c1` [Compound 7b, (5Z)-5-(3-Nitrobenzylidene)-2-thioxo-1,3-thiazolidin-4-one], for which, in the data set with Chlorella vulgaris, the inhibition at 100 µM came out at 85.7% and the IC50 was 4.4 µM. The same molecule registered an IC50 in data set [1] of 16.9 µM. The same molecule yielded a log k in [2] of 0.2399.
Turning to `O=C1NC(=S)S/C1=C\c1ccc([N+](=O)[O-])cc1` [Compound 7c, (5Z)-5-(4-Nitrobenzylidene)-2-thioxo-1,3-thiazolidin-4-one], in the data set with Chlorella vulgaris, the inhibition at 100 µM came out at 87.1% and the IC50 stood at 21.9 µM. In addition, the IC50 in data set [1] was determined as 20.1 µM. Further, the log k in data set [2] is on record as 0.2436.
Take `O=C1NC(=S)S/C1=C\c1ccc(Cl)cc1` [Compound 9c, (5Z)-5-(4-Chlorobenzylidene)-2-thioxo-1,3-thiazolidin-4-one]: in the data set with Chlorella vulgaris, the inhibition at 100 µM came to 84.8% and the IC50 was 1.3 µM. In data set [1], the midpoint of inhibition, the IC50, lay at 6 µM. Further, the log k in data set [2] was 0.5936.
In turn, `O=C1/C(=C/c2ccccc2[N+](=O)[O-])SC(=S)N1CCO` [Compound 11a, (5Z)-3-(2-Hydroxyethyl)-5-(2-nitrobenzylidene)-2-thioxo-1,3-thiazolidin-4-one] returned an IC50 in data set [1] of 127 µM. This molecule registered a log k in data set [2] of 0.4751.
`O=C1NC(=S)S/C1=C\c1cnccn1` [Compound 15, (5Z)-5-(Pyrazin-2-ylmethylidene)-2-thioxo-1,3-thiazolidin-4-one]: the inhibition at 100 µM in the data set with Chlorella vulgaris worked out at 1.8%. For the same molecule, half-maximal inhibition in data set [1] (IC50) required 216 µM. The same molecule gave a log k in data set [2] of 0.2359.
In the case of `CN(C)C(=O)Nc1ccc(Cl)c(Cl)c1` [DCMU, 3-(3,4-dichlorophenyl)-1,1-dimethylurea], the IC50 was roughly 7.3 µM with Chlorella vulgaris; ~1.9 µM and 1.9 µM in data set [3].
Regarding `O=C(O)CN1C(=O)CSC1=S` [rhodanine-N-acetic acid], the “inhibition of germination of seeds of Daucus carota” value in data set [4] was “inhibited”. In addition, the “inhibition of germination of seeds of Sesamum indicum” value with seeds of Sesamum indicum is “inhibited”. The “inhibition of growth of Daucus carota” value in data set [5] is on record as “strongly inhibited”.
For the molecule `O=C1CSC(=S)N1` [rhodanine], the “inhibition of chlorophyll synthesis in cotyledons” value in data set [6] is recorded as “strongly inhibited”. The “inhibition of growth of immature cells” value in data set [7] was “completely inhibited”. Also, the IC50 in data set [8] (assay done after illumination for 3 min) was 100 µM; in [8] (normal 1 min assay), roughly 1000 µM. Moreover, in data set [4], the “inhibition of germination of seeds of Daucus carota” value is “inhibited”. For the same molecule, the “inhibition of germination of seeds of Sesamum indicum” value with seeds of Sesamum indicum was “inhibited”. The “inhibition of growth of Daucus carota” value in data set [5] was “strongly inhibited”.
